# According to US9957230B2, “Synergistic compositions” (Cadila Healthcare Limited, priority 2013, dated 2018):
# Where a name gives a salt, the structure may show the parent alone.
# Tested on: high fat high cholesterol fed Syrian golden hamster
# Experiment: Lipid lowering effects with Rosuvastatin Calcium in HF-HC fructose diet Syrian golden hamsters (study III)
# Assay type: in vivo
# Conditions: Compound (Ia) 3 mg/kg
# Source text: The in-vivo efficacy was done in high fat high cholesterol fed Syrian golden hamster. It is an excellent model to investigate hepatic assembly and secretion of lipoprotein since its lipoprotein metabolism closely resembles that of humans as they have cholesteryl ester transfer protein (CETP) as like human. Feeding high fat high cholesterol diet to Syrian golden hamster causes hypercholesterolemia and hypertriglyceridemia which causes an increase in LDL levels and decrease in HDL-C/TC ratio.
# In this experiment, 21 Syrian golden hamsters which were kept on high fat-high cholesterol (HF-HC) fructose diet were divided into 3 treatment groups and one group was on normal diet control which was NIN (National Institute of Nutrition, NIN diet) control, the treatment given was as per Table no. 1. NIN control and HF-HC fructose diet vehicle control groups were treated with vehicle (10% Polyethylene glycol (PEG) 400+90% of 0.5% methyl cellulose) and other three groups with treatment mentioned in Table no. 13. The treatment was given oral gavages once daily for 7 days.
# Calculations of the % change in LDL-C levels, HDL-C and LDL-C/HDL-C ratio (Vs HF-HC fructose diet control) were performed using MS Excel.
# [1] = HF-HC fructose diet hamsters, 7 days, Rosuvastatin calcium 0.3 mg/kg
smiles,measurement,setting,value
"CCO[C@@H](Cc1ccc(OCCn2c(C)ccc2-c2ccc(SC)cc2)cc1)C(=O)O [Compound (Ia), Benzenepropanoic acid, α-ethoxy-4-[2-[2-methyl-5-[4-(methylthio)phenyl]-1H -pyrrol-1-yl]ethoxy]-, magnesium salt]",reduction in LDL-C,[1],9.9%
same,"reduction in LDL-C/HDL-C ratio, atherogenic index",[1],4.9%
same,Serum LDL-C (mg/dl) Day 0,"Table 14, Day 0 (pretreatment), HF-HC fructose diet hamsters, Rosuvastatin calcium 0.3 mg/kg oral once daily 7 days",114.8 mg/dL
same,LDL-C % Change vs Day 0,"Table 14, Day 7, Rosuvastatin calcium 0.3 mg/kg",9.2%
same,Serum LDL-C (mg/dl) Day 7,"Table 14, Day 7, HF-HC fructose diet hamsters, Rosuvastatin calcium 0.3 mg/kg oral once daily 7 days",123.7 mg/dL
same,% Change vs HF-HC Fructose Control,"Table 14, LDL-C, Day 7, Rosuvastatin calcium 0.3 mg/kg",−9.9%
same,Serum HDL-C (mg/dl) Day 0,"Table 15, Day 0 (pretreatment), HF-HC fructose diet hamsters, Rosuvastatin calcium 0.3 mg/kg oral once daily 7 days",101.8 mg/dL
same,HDL-C % Change vs Day 0,"Table 15, Day 7, Rosuvastatin calcium 0.3 mg/kg",9.8%
same,Serum HDL-C (mg/dl) Day 7,"Table 15, Day 7, HF-HC fructose diet hamsters, Rosuvastatin calcium 0.3 mg/kg oral once daily 7 days",111.5 mg/dL
same,Serum LDL-C/HDL-C Ratio Day 0,"Table 16, Day 0 (pretreatment), HF-HC fructose diet hamsters, Rosuvastatin calcium 0.3 mg/kg",1.13
same,LDL/HDL % Change Vs Day 0,"Table 16, Day 7, Rosuvastatin calcium 0.3 mg/kg",−0.3%
same,Serum LDL-C/HDL-C Ratio Day 7,"Table 16, Day 7, HF-HC fructose diet hamsters, Rosuvastatin calcium 0.3 mg/kg",1.09
same,% Change vs HF-HC Fructose Control,"Table 16, LDL-C/HDL-C ratio, Day 7, Rosuvastatin calcium 0.3 mg/kg",−4.9%
